Assay results: article PMC7157554, “Anti-Trypanosomal Proteasome Inhibitors Cure Hemolymphatic and Meningoencephalic Murine Infection Models of African Trypanosomiasis” (Tropical Medicine and Infectious Disease, 2020)
Where two headings read alike, the source gives them in different places.

What was measured:
[1] = tested on: T. b. brucei strain Lister 427 (bloodstream form); assay: T. b. brucei growth inhibition assay (CellTiter-Glo, 48 h); format: cell-based, Trypanosoma brucei brucei
Description: The T. b. brucei strain Lister 427 (bloodstream form) parasites were continuously grown in complete HMI-9 medium supplemented with 10% Serum Plus and 10% heat-inactivated fetal bovine serum (FBS). All other parasite strains were cultured as described elsewhere.
(§1) For determination of 50% growth inhibition, all compounds were dissolved in DMSO, and 200 nL of threefold serially diluted compounds were added into solid-bottom 384-well white plates (Greiner Bio-One, Kremsmunster, Austria) by an Echo 555 acoustic liquid-handling system. Forty microliters of 10^4 cells/mL of T. b. brucei parasites was added into each well, and the plates were incubated in a 5% CO2 incubator at 37 °C for 48 h. Viability of parasites were determined by measuring intracellular ATP levels, using CellTiter-Glo (CTG) luminescent cell viability reagent (Promega, Madison, Wisconsin WI, USA). The EC50 values were determined by using GraphPad Prism software. Growth inhibition assays for all clinical isolates were carried out as described earlier. All experiments had two technical replicates and three biological replicates. Appropriate statistical tests were used for evaluating significance, and mean ± SEM is represented in the tables.

[2] = tested on: HepG2 (human hepatocellular carcinoma) cells; assay: HepG2 cytotoxicity assay (CCK-8, 96 h); format: cell-based; conditions: mean ± SEM
Description: The HepG2 (human hepatocellular carcinoma) cells were obtained from ATCC (American Type Culture Collection) and grown in RPMI media. Cytotoxicity assay was performed in 384-well format, and 25 µL, approximately 1.6 × 10^4 cells/mL, suspension was added to clear-bottom 384-well Griener plates and incubated in 5% CO2 incubator, at 37 °C for 24 h. Once the cells adhered, 125 nL of threefold serially diluted compounds in DMSO was added. Plates were incubated for 96 h, at 37 °C, in a 5% CO2 incubator. Plates were read for viability by adding 10 µL of CCK-8 reagent (APExBIO) into each well, followed by 3 h incubation and absorbance reading at […], using an Envision plate reader. […] Puromycin was used as a positive control. All experiments had two technical replicates and three biological replicates. Appropriate statistical tests were used for evaluating significance, and mean ± SEM is represented in the tables.

[3] = Mouse plasma protein binding; format: in vitro ADME; conditions: for fraction unbound: mouse plasma
Description: Test compounds’ solubility was determined in a high-throughput thermodynamic solubility assay, as described previously. The PAMPA (parallel artificial membrane) assays were carried out, using a standard protocol. Plasma protein binding was determined by using mouse blood, whilst brain tissue binding was determined by using rat brain tissue homogenate. Intrinsic metabolic clearances were determined in mouse liver microsomes, using the compound depletion approach and LC–MS/MS quantification.

T. brucei PSMB4^F24L = assay: Growth inhibition of T. brucei expressing F24L mutant 20S proteasome β4 subunit; format: cell-based, Trypanosoma brucei; conditions: Trypanosoma brucei, read-out: T. brucei PSMB4^F24L EC50
Description: as §1

Cc1nc(C)c(C(=O)Nc2ccc(F)c(-c3nc4ncc(-c5ccccn5)cn4n3)c2)o1 [GNF6702]
EC50 ([1]; Lister 427 bloodstream form, mean ± SEM, read-out: T. b. brucei EC50): 0.07 ± 0.003 µM | EC50 ([1]; Trypanosoma brucei, read-out: T. b. brucei EC50, Lister 427 bloodstream form, 48 h, mean ± SEM): < 0.07 µM

Cc1nc(C)c(C(=O)Nc2ccc(F)c(-c3nc4ncc(-c5ccccc5)cn4n3)c2)o1 [GNF3849]
HepG2 CC50 [2]: cytotoxic | Mouse plasma protein binding [3]: high | fraction unbound [3]: < 0.01 | EC50 (T. brucei PSMB4^F24L): 2.2 ± 0.02 µM

Cc1nc(C)c(C(=O)Nc2ccc(F)c(-c3nc4ncc(C(C)(C)C)cn4n3)c2)o1 [NITD689]
fraction unbound [3]: 0.095 | EC50 (T. brucei PSMB4^F24L): 1.9 ± 0.02 µM
